Drawing on patent US20190127366A1 (LifeSci Pharmaceuticals, Inc., priority 2015, published 2019), this text covers IC50 for 26 molecules.

T1 sequence (P00746 26-253): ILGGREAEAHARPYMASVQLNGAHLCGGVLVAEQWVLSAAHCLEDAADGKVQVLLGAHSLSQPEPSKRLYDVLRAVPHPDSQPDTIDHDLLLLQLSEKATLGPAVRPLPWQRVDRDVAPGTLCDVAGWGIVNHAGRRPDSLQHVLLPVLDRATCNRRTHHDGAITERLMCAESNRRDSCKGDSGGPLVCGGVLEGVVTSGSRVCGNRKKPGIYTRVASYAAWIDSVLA

This experiment concerns the target T1, human complement factor D (Homo sapiens, UniProt P00746).
T1 construct: purchased R&D Systems 1824-SE
The experiment is described as follows: In vitro enzyme inhibition (Z-Lys-SBzl/DTNB absorbance assay). The class given is biochemical. To be noted: Complement Factor D (R&D Systems), substrate Z-Lys-SBzl, A405 nm; read-out: CFD IC50. The method, boiled down:
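Factor D (6.25 ng/μL before addition) preincubated 5 min RT with compound (8 points from 50 μM, 6-fold, 0.5% DMSO final) in 50 mM Tris/HCl pH 7.5, 1 M NaCl, then Z-Lys-SBzl/DTNB added (200 μM each before addition). A405 read kinetically every 30 s for 60 min; IC50 from variable-slope fit, controls with and without enzyme.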
`COc1ccc2c(c1)c(C(N)=O)nn2CC(=O)N1[C@H](C(=O)Nc2cccc(Cl)n2)C[C@@H]2CCC[C@@H]21` [Example 170, 1-(2-((2S,3aS,6aS)-2-((6-chloropyridin-2-yl)carbamoyl)hexahydrocyclopenta[b]pyrrol-1(2H)-yl)-2-oxoethyl)-5-methoxy-1H-indazole-3-carboxamide]: the IC50 was 100 to 1000 nM.

`NC(=O)c1nn(CC(=O)N2[C@H]3CC[C@H](C3)[C@H]2C(=O)Nc2cccc(Cl)n2)c2ccc(Cl)cc12` [Example 16, 5-chloro-1-(2-((1S,3S,4R)-3-((6-chloropyridin-2-yl)carbamoyl)-2-azabicyclo[2.2.1]heptan-2-yl)-2-oxoethyl)-1H-indazole-3-carboxamide]: the IC50 was 1000 to 10000 nM.

As to `NC(=O)c1nn(CC(=O)N2CCCCC[C@H]2C(=O)Nc2cccc(Cl)c2F)c2ccccc12` [Example 32, (S)-1-(2-(2-((3-chloro-2-fluorophenyl)carbamoyl)azepan-1-yl)-2-oxoethyl)-1H-indazole-3-carboxamide], the IC50 lay in the range of 1000 to 10000 nM.

As for `NC(=O)c1nn(CC(=O)N2[C@H](C(=O)Nc3cccc(Cl)n3)C[C@@H]3CCC[C@@H]32)c2cc(F)ccc12` [Example 172, 1-(2-((2S,3aS,6aS)-2-((6-chloropyridin-2-yl)carbamoyl)hexahydrocyclopenta[b]pyrrol-1(2H)-yl)-2-oxoethyl)-6-fluoro-1H-indazole-3-carboxamide 2,2,2-trifluoroacetate], the IC50 fell in the range of 100 to 1000 nM.

For `COC(=O)c1cc(Cl)c(F)c(CNC(=O)[C@@H]2[C@H]3CC[C@H](C3)N2C(=O)Cn2nc(C(N)=O)c3ccccc32)c1` [Example 110, methyl 3-(((1R,3S,4S)-2-(2-(3-carbamoyl-1H-indazol-1-yl)acetyl)-2-azabicyclo[2.2.1]heptane-3-carboxamido)methyl)-5-chloro-4-fluorobenzoate], the IC50 was in the range of 1000 to 10000 nM.

For the molecule `Cc1cccc(NC(=O)[C@@H]2[C@H]3CC[C@H](C3)N2C(=O)Cn2nc(C(N)=O)c3ccccc32)n1` [Example 6, 1-(2-((1R,3S,4S)-3-((6-methylpyridin-2-yl)carbamoyl)-2-azabicyclo[2.2.1]heptan-2-yl)-2-oxoethyl)-1H-indazole-3-carboxamide], the IC50 was 1000 to 10000 nM.

With `NC(=O)c1nn(CC(=O)N2[C@H](C(N)=O)C[C@H]2C(=O)NCc2cccc(Cl)c2F)c2ccccc12` (relative stereo) [Example 196, trans-1-(2-(3-carbamoyl-1H-indazol-1-yl)acetyl)-N2-(3-chloro-2-fluorobenzyl)azetidine-2,4-dicarboxamide], the half-maximal inhibitory concentration (IC50) lay within 1000 to 10000 nM.

On to `NC(=O)c1nn(CC(=O)N2[C@@H]3CC[C@@H](C3)[C@H]2C(=O)Nc2cc(CO)cc(Cl)n2)c2ccccc12` [Example 105, 1-(2-((1R,3S,4S)-3-((6-chloro-4-(hydroxymethyl)pyridin-2-yl)carbamoyl)-2-azabicyclo[2.2.1]heptan-2-yl)-2-oxoethyl)-1H-indazole-3-carboxamide], for which the half-inhibitory concentration (IC50) fell in the range of 100 to 1000 nM.

On to `NC(=O)c1nn(CC(=O)N2[C@@H]3CC[C@@H](C3)[C@H]2C(=O)Nc2cccc(Cl)n2)c2ccc([N+](=O)[O-])cc12` [Example 73, 1-(2-((1R,3S,4S)-3-((6-chloropyridin-2-yl)carbamoyl)-2-azabicyclo[2.2.1]heptan-2-yl)-2-oxoethyl)-5-nitro-1H-indazole-3-carboxamide], for which the IC50 was in the range of 1000 to 10000 nM.

For the molecule `NC(=O)c1nn(CC(=O)N2CCOC[C@H]2C(=O)Nc2cccc(Cl)n2)c2ccccc12` [Example 22, (S)-4-(2-(3-carbamoyl-1H-indazol-1-yl)acetyl)-N-(6-chloropyridin-2-yl)morpholine-3-carboxamide], the IC50 fell in the range of 1000 to 10000 nM.

For the molecule `NC(=O)c1nn(CC(=O)N2C3CCC(C3)[C@H]2C(=O)Nc2cccc(C(F)(F)F)n2)c2ccccc12` (stereo partly drawn) [Example 13, 1-(2-oxo-2-((3S)-3-((6-(trifluoromethyl)pyridin-2-yl)carbamoyl)-2-azabicyclo[2.2.1]heptan-2-yl)ethyl)-1H-indazole-3-carboxamide], the concentration for half-maximal inhibition (IC50) is 1000 to 10000 nM.

For `CC(=O)c1nn(CC(=O)N2[C@@H]3CC[C@@H](C3)[C@H]2C(=O)Nc2cccc(Cl)n2)c2ccc(C)cc12` [Example 83, (1R,3S,4S)-2-(2-(3-acetyl-5-methyl-1H-indazol-1-yl)acetyl)-N-(6-chloropyridin-2-yl)-2-azabicyclo[2.2.1]heptane-3-carboxamide], the IC50 lay in the range of 100 to 1000 nM.

For the molecule `COC(=O)Cc1ccc2c(c1)c(C(N)=O)nn2CC(=O)N1[C@@H]2CC[C@@H](C2)[C@H]1C(=O)NCc1cccc(Cl)c1F` [Example 130, methyl 2-(3-carbamoyl-1-(2-((1R,3S,4S)-3-((3-chloro-2-fluorobenzyl)carbamoyl)-2-azabicyclo[2.2.1]heptan-2-yl)-2-oxoethyl)-1H-indazol-5-yl)acetate], the half-inhibitory concentration (IC50) lay in the range of 100 to 1000 nM.

For the molecule `N#Cc1cc(Cl)c(F)c(CNC(=O)[C@@H]2[C@H]3CC[C@H](C3)N2C(=O)Cn2nc(C(N)=O)c3ccccc32)c1` [Example 113, 1-(2-((1R,3S,4S)-3-((3-chloro-5-cyano-2-fluorobenzyl)carbamoyl)-2-azabicyclo[2.2.1]heptan-2-yl)-2-oxoethyl)-1H-indazole-3-carboxamide], the IC50 fell in the range of 1000 to 10000 nM.

For `NC(=O)Cc1ccc2c(c1)c(C(N)=O)nn2CC(=O)N1[C@@H]2CC[C@@H](C2)[C@H]1C(=O)NCc1cccc(Cl)c1F` [Example 133, 5-(2-amino-2-oxoethyl)-1-(2-((1R,3S,4S)-3-((3-chloro-2-fluorobenzyl)carbamoyl)-2-azabicyclo[2.2.1]heptan-2-yl)-2-oxoethyl)-1H-indazole-3-carboxamide], the IC50 lay in the range of 1000 to 10000 nM.

Turning to `NC(=O)c1nn(CC(=O)N2[C@@H]3CC[C@@H](C3)[C@H]2C(=O)NCc2cccc(Cl)c2Cl)c2ccccc12` [Example 70, 1-(2-((1R,3S,4S)-3-((2,3-dichlorobenzyl)carbamoyl)-2-azabicyclo[2.2.1]heptan-2-yl)-2-oxoethyl)-1H-indazole-3-carboxamide], the IC50 is 100 to 1000 nM.

Turning to `CC(=O)c1nn(CC(=O)N2[C@H](C(=O)Nc3cccc(Cl)n3)C[C@@H]3CCC[C@@H]32)c2ccc(Cl)cc12` [Example 178, (2S,3aS,6aS)-1-(2-(3-acetyl-5-chloro-1H-indazol-1-yl)acetyl)-N-(6-chloropyridin-2-yl)octahydrocyclopenta[b]pyrrole-2-carboxamide], the IC50 fell in the range of 100 to 1000 nM.

As for `NC(=O)c1nn(CC(=O)N2[C@@H]3CC[C@@H](C3)[C@H]2C(=O)Nc2ncccc2Cl)c2ccccc12` [Example 54, 1-(2-((1R,3S,4S)-3-((3-chloropyridin-2-yl)carbamoyl)-2-azabicyclo[2.2.1]heptan-2-yl)-2-oxoethyl)-1H-indazole-3-carboxamide], the concentration for half-maximal inhibition (IC50) was more than 10000 nM.

In the case of `NC(=O)c1nn(CC(=O)N2[C@H](C(=O)Nc3cccc(Cl)n3)C[C@@H]3CCC[C@@H]32)c2cnccc12` [Example 177, 1-(2-((2S,3aS,6aS)-2-((6-chloropyridin-2-yl)carbamoyl)hexahydrocyclopenta[b]pyrrol-1(2H)-yl)-2-oxoethyl)-1H-pyrazolo[3,4-c]pyridine-3-carboxamide], the IC50 lay in the range of 100 to 1000 nM.

In the case of `NC(=O)c1nn(CC(=O)N2CC3CC2(C(=O)Nc2cccc(Cl)c2F)C3)c2ccccc12` [Example 150, 2-(2-(3-carbamoyl-1H-indazol-1-yl)acetyl)-N-(3-chloro-2-fluorophenyl)-2-azabicyclo[2.1.1]hexane-1-carboxamide], the half-maximal inhibitory concentration (IC50) is more than 10000 nM.

Regarding `NC(=O)c1nn(CC(=O)N2[C@@H]3CC[C@@H](C3)[C@H]2C(=O)Nc2cccc(OC(F)(F)F)c2F)c2ccccc12` [Example 41, 1-(2-((1R,3S,4S)-3-((2-fluoro-3-(trifluoromethoxy)phenyl)carbamoyl)-2-azabicyclo[2.2.1]heptan-2-yl)-2-oxoethyl)-1H-indazole-3-carboxamide], the IC50 lay within 1000 to 10000 nM.

Consider `NC(=O)c1nn(CC(=O)N2CCNCCC2C(=O)NCc2cccc(Cl)c2F)c2ccccc12` (centres unmarked) [Example 35, 1-(2-(7-((3-chloro-2-fluorobenzyl)carbamoyl)-1,4-diazepan-1-yl)-2-oxoethyl)-1H-indazole-3-carboxamide 2,2,2-trifluoroacetate], for which the IC50 lay in the range of 1000 to 10000 nM.

Turning to `NC(=O)Cc1nn(CC(=O)N2[C@@H]3CC[C@@H](C3)[C@H]2C(=O)Nc2cccc(Cl)n2)c2ccccc12` [Example 94, (1R,3S,4S)-2-(2-(3-(2-amino-2-oxoethyl)-1H-indazol-1-yl)acetyl)-N-(6-chloropyridin-2-yl)-2-azabicyclo[2.2.1]heptane-3-carboxamide], the IC50 lay in the range of 1000 to 10000 nM.

Consider `NC(=O)c1nn(CC(=O)N2CC3CC2(C(=O)Nc2cccc(Cl)n2)C3)c2ccccc12` [Example 151, 2-(2-(3-carbamoyl-1H-indazol-1-yl)acetyl)-N-(6-chloropyridin-2-yl)-2-azabicyclo[2.1.1]hexane-1-carboxamide], for which the IC50 fell in the range of 1000 to 10000 nM.

For `CC(=O)c1nn(CC(=O)N2[C@H](C(=O)Nc3cccc(Cl)n3)C[C@@H]3CCC[C@@H]32)c2ccccc12` [Example 180, (2S,3aS,6aS)-1-(2-(3-acetyl-1H-indazol-1-yl)acetyl)-N-(6-chloropyridin-2-yl)octahydrocyclopenta[b]pyrrole-2-carboxamide], the IC50 was in the range of 100 to 1000 nM.

For `NC(=O)c1nn(CC(=O)N2[C@@H]3CC[C@@H](C3)[C@H]2C(=O)NCc2cnc3[nH]cc(Cl)c3c2)c2ccccc12` [Example 48, 1-(2-((1R,3S,4S)-3-(((3-chloro-1H-pyrrolo[2,3-b]pyridin-5-yl)methyl)carbamoyl)-2-azabicyclo[2.2.1]heptan-2-yl)-2-oxoethyl)-1H-indazole-3-carboxamide], the IC50 is more than 10000 nM.
